Source: US20050054673A1, “Combination of phenylcarboxylic acid amides with beta-adrenoreceptor blockers and their use for the treatment of atrial arrhythmias” (Aventis Pharma Deutschland GmbH, priority 2003, published 2005)
Marks after values point to notes of the source that are not given here.

Test system: left atrium of the pig
Assay: Refractory period in anaesthetized pigs (AERP, left atrium)
Format: in vivo
Conditions: for Increase after Example 1 in ms: infusion 3 mg/kg/h, vs. control; for Effect on the refractory period (in words): single substances, Example 1 or 5 after 1 h infusion of 3 mg/kg/h
Description: Investigation of the refractory period in anaesthetized pigs
The investigations were carried out in the anaesthetised pig as described by Knobloch et al. (Knobloch K., Brendel J., Peukert S., Rosenstein B., Busch A.-E., Wirth K.-J., “Electrophysiological and antiarrhythmic effects of the novel IKUR channel blockers, S9947 and S20951, on the left vs. right pig atrium in vivo in comparison with the IKr blockers dofetilide, azimilide, d, I-sotalol and ibutilide”, Naunyn-Schmiedeberg's Arch Pharmacol 2002, 366: 482-487). The action of beta-blockers and IKUR blockers on the refractory period of the left atrium was investigated. First, the action of the individual substances was tested, then the action of the combination of both individual substances.
Male pigs of native German breed of age 2-3 months and weight 23-30 kg were used.
The pigs were premedicated with 3 mL of Rompun® 2% ([…] 23.3 mg/mL=3 mg/kg; injected intramuscularly) and 6 mL of Hostaket® (ketamine 115 mg/mL=20 mg/kg; injected intramuscularly). Anesthesia was induced using an intravenous bolus injection of 5 mL of Narcoren® (pentobarbital 160 mg/mL=25-30 mg/kg; i.v.) and continuously supplied intravenously by means of a pentobarbital perfusor at 12-17 mg/kg/h. After tracheotomy and intubation, the animals were ventilated with oxygen by means of a respirator. A left-lateral thoracotomy was carried out in the fifth intercostal space. The lungs were retracted using sutures, the pericardium was opened and held using sutures so that the heart rocked in this. The tip of a MAP Pacing™ electrophysiology catheter (EP Technologies, Model 1675, Boston Scientific Corporation, 92257 La Garenne-Colombes Cedex, France) were then placed on the free wall of the left atrium in a right-angled position and fixed to the left atrium under constant pressure in a stand. The electrical stimulation was carried out using an external heart stimulator from Biotronik (UHS 20, Universal heart stimulator, Biotronik GmbH, 12359 Berlin, Germany).
Measurement of the atrial effective refractory period (AERP): The electrical atrial response to the external pacemaker stimulation was visualized by means of a mono phasic action potential (MAP), which was derived from the left atrium by means of the electrophysiology catheter. A conditioning stimulation cycle of 10 base intervals (S1) in a double stimulation amplitude followed a diastolic, prematurely coupled extrastimulus (S2, 1 ms pulse duration, 200 ms refractory period), which originated during a 5 ms decrement of a coupling interval, which was 30 ms above the expected effective refractory period (AERP). The 5 mS decrement in the coupling interval of the extrastimulus ran until the atrium no longer produced any response in the form of an action potential. The longest coupling interval which was no longer able to induce any atrial action potential was used as the effective refractory period. The refractory period was in each case investigated at three basal cycle length, 240, 300 and 400 ms).
Experimental groups: The sole action of atenolol (bolus administration of 1 mg/kg) on the refractory period was investigated in a separate group of pigs (n=5).

[1] = basal cycle length 240 ms, atenolol 1 mg/kg bolus i.v., n = 5
[2] = basal cycle length 300 ms, atenolol 1 mg/kg bolus i.v., n = 5
[3] = basal cycle length 400 ms, atenolol 1 mg/kg bolus i.v., n = 5

| Structure (SMILES) | Increase in ms of refractory period vs. control [1] | Refractory period, mean value [1] | Increase in ms of refractory period vs. control [2] | Refractory period, mean value [2] | Increase in ms of refractory period vs. control [3] | Refractory period, mean value [3] | Refractory period, mean value (basal cycle length 240 ms, Example 1 infused 3 mg/kg/h, after 1 h atenolol 1 mg/kg bolus, n = 6) | Increase after Example 1 in ms (basal cycle length 240 ms, n = 6) | Refractory period, mean value (basal cycle length 300 ms, Example 1 infused 3 mg/kg/h, after 1 h atenolol 1 mg/kg bolus, n = 6) | Increase after Example 1 in ms (basal cycle length 300 ms, n = 6) | Refractory period, mean value (basal cycle length 400 ms, Example 1 infused 3 mg/kg/h, after 1 h atenolol 1 mg/kg bolus, n = 6) | Increase after Example 1 in ms (basal cycle length 400 ms, n = 6) | Effect on the refractory period (in words) |
| --- | --- | --- | --- | --- | --- | --- | --- | --- | --- | --- | --- | --- | --- |
| CC(C)NCC(O)COc1ccc(CC(N)=O)cc1 (centres unmarked) [Atenolol, atenolol, reference compound] | 25* ms | 136 milliseconds | 21* ms | 129 milliseconds | 11* ms | 129 milliseconds |  |  |  |  |  |  |  |
| COc1ccc(CC(=O)NCc2ccccc2-c2ccccc2C(=O)NCCc2cccnc2)cc1 [Example 1, 2′-{[2-(4-Methoxyphenyl)acetylamino]methyl}biphenyl-2-carboxylic acid (2-pyridin-3-ylethyl)amide] |  |  |  |  |  |  | 136 milliseconds | 35^# ms | 149.5 milliseconds | 40.7^# ms | 166.2 milliseconds | 52.3^# ms | increased to a stable level |
| CCCCS(=O)(=O)Nc1ccccc1C(=O)N[C@H](CC)c1ccc(OC)nc1 [Example 5, 2-(Butyl-1-sulfonylamino)-N-[1(R)-(6-methoxypyridin-3-yl)-propyl]benzamide] |  |  |  |  |  |  |  |  |  |  |  |  | increased to a stable level |
